This series in a line: In vivo study in rats fed a high-fat diet for 3 weeks (Example 2): body weight, blood glucose, liver weight, hepatic enzymes. More on the design: species or system Sprague-Dawley rats. The protocol: Sprague-Dawley rats (8-week-old; OzGene, formerly Animal Resources Centre, Perth) were fed a high-fat diet (22% fat/44% energy from fat, sourced from Specialty Feeds, Glen Forrest WA) where animals were provided access to food ad libitum for a period of 3 weeks. The rats were divided into groups and administered treatments as follows: (i) PBS (negative control), (ii) INU-BEN (1 g/kg), (iii) orlistat (tetrahydrolipstatin) (positive control; 75 mg/kg; Dayang Chem (Hangzhou) Co., Ltd) and (iv) a combination group of INU-BEN (1 g/kg) and orlistat (75 mg/kg). The rats were treated daily between […]. The experimental studies involved monitoring body weight daily, prior to dosing. Thereafter, blood samples were collected (by tail vein) prior to the rats being euthanized and were analysed for blood glucose levels and liver enzyme concentrations. The rats were dissected and analysed for fat pad weight and liver weight. The rat microbiomes were also analysed at the completion of the 3-week treatment period via faecal samples.

Turning to `CCCCCCCCCCC[C@@H](C[C@@H]1OC(=O)[C@H]1CCCCCC)OC(=O)[C@H](CC(C)C)NC=O` [orlistat, tetrahydrolipstatin], the “plasma hepatic enzyme concentrations (LDH, ALT, AST)” value (after 3 weeks of treatment, FIGS. 7A-7C) is reported as “does not exert a positive impact on plasma hepatic enzyme concentrations”. For the same molecule, under “daily treatment for 3 weeks, INU-BEN 1 g/kg, orlistat 75 mg/kg, vs PBS negative control, FIG. 3/4”, the “body weight gain (change in rodent body weight normalized to original body weight)” value is reported as “performed about the same”.

For the origin of these results see patent US20260207656A1, “COMPOSITION FOR PREVENTING AND/OR TREATING METABOLIC DISORDERS AND METHOD OF ITS PREPARATION” (Pharmako Biotechnologies Pty Ltd, priority 2022, published 2026).
